Results on 39 compounds are retold here after US10940139B2, “Compounds that interact with the Ras superfamily for the treatment of cancers, inflammatory diseases, rasopathies, and fibrotic disease” (Shy Therapeutics LLC, priority 2017, dated 2021).

Holding throughout (experiment): Ras GTP binding domain inhibition assay (labeled GTP)
The target in one assay is KRas G12D mutant protein (Homo sapiens (Human), UniProt P01116, G12D).
The next assay deals with KRas G12C mutant (Homo sapiens (Human), UniProt P01116, G12C). In a few lines:
(§1)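 Ni-plate capture of His-KRas (3-10 μg/ml, o/n, 4° C); Tris pH 7.5/MgCl2/DTT buffer, 1% DMSO. Cpd 20 μM or titration, 3 h RT. Cy3/Cy5-GTP 45 min RT, wash, fluorescence of bound GTP.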

In assay [1] the target is KRas G12D/Q61H double mutant (Homo sapiens (Human), UniProt P01116, G12D/Q61H). A digest of the protocol: as §1
Sequence of KRas G12D/Q61H double mutant (P01116-2 other isoform, or with tags, fused parts or gaps G12D/Q61H): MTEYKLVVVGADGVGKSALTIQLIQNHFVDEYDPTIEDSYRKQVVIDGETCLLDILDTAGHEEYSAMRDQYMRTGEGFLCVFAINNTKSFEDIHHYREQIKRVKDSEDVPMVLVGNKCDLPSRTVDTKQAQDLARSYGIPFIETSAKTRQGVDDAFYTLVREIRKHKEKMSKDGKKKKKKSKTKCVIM
The target of another assay is KRas wild type (Homo sapiens (Human), UniProt P01116). A digest of the protocol: as §1
Sequence of KRas wild type (P01116-2 other isoform, or with tags, fused parts or gaps): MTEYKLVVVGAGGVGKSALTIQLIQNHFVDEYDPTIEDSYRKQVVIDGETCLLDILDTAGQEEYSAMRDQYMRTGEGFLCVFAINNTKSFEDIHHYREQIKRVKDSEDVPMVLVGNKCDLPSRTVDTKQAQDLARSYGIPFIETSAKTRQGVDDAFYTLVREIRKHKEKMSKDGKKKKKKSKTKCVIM
The mark [2] stands for this setting: 20 μM compound, KRas G12D, read-out: % Inhibition at 20 μM of K-Ras mutant and wild-type protein, KRas G12D.
The mark [3] stands for this setting: 20 μM compound, KRas G12C, read-out: % Inhibition at 20 μM of K-Ras mutant and wild-type protein, KRas G12C.
Where [4] appears, read: 20 μM compound, KRas wild type, read-out: % Inhibition at 20 μM of K-Ras mutant and wild-type protein, KRas wild type.

Like-named read-outs stand apart in the source and are kept apart here.

Sequence of KRas G12D mutant protein (P01116-2 other isoform, or with tags, fused parts or gaps G12D): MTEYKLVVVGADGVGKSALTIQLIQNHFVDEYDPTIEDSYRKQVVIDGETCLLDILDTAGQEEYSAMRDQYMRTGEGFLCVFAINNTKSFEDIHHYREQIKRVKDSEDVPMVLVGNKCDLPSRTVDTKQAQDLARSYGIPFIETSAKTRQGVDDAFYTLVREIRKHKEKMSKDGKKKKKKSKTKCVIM
Sequence of KRas G12C mutant (P01116-2 other isoform, or with tags, fused parts or gaps G12C): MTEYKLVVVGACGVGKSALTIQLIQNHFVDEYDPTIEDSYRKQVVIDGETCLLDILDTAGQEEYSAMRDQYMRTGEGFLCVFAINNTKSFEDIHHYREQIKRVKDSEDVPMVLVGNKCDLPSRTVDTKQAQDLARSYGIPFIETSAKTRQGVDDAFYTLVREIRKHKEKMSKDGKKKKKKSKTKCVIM

Consider `O=C(c1csc2c(O)nc(-c3ccccn3)nc12)N1CCC(c2cccnc2)CC1` [drawing 2682], for which the inhibition at 20 µM on KRas G12D mutant protein (20 μM compound, read-out: % Inhibition at 20 μM KRas G12D) lay within 51 to 75%; at KRas G12C mutant (20 μM compound, read-out: % Inhibition at 20 μM KRas G12C) it was 25 to 50%; in assay [1] (20 μM compound, read-out: % Inhibition at 20 μM KRas G12D Q61H) it was 51 to 75%; at KRas wild type (20 μM compound, read-out: % Inhibition at 20 μM KRas wild type) it was 76 to 100%.
On to `COC(=O)c1cccc(CN2CCC(CSc3ccccc3)C2)c1C#N` (centres unmarked) [drawing 2611], for which the inhibition at 20 µM was in the range of 1 to 25% at KRas G12D mutant protein (20 μM, read-out: KRas G12D % Inh.); 25 to 50% at KRas G12C mutant (20 μM, read-out: KRas G12C % Inh.); 25 to 50% in assay [1] (20 μM, read-out: KRas G12D Q61H % Inh.); 1 to 25% on KRas wild type (20 μM, read-out: KRas wild type, % Inh.).
Consider `COCCN(C)c1nc(-c2nccn2C)nc2sc(-c3ccccc3)c(-c3ccccc3)c12` [drawing 3566], for which the inhibition at 20 µM at KRas G12D mutant protein (setting [2]) fell in the range of 51 to 75%; at KRas G12C mutant (setting [3]), 25 to 50%; on KRas wild type (setting [4]), 51 to 75%.
As for `COCCNc1nc(-c2ccncn2)nc2sc(-c3ccccc3)c(-c3ccccc3)c12` [drawing 3574], the inhibition at 20 µM at KRas G12D mutant protein (setting [2]) was 0%; on KRas G12C mutant (setting [3]), 1 to 25%; on KRas wild type (setting [4]) it was 1 to 25%.
As for `Cc1ccccc1-c1c(C)sc2c(O)nc(-c3nccn3C)nc12`, the inhibition at 20 µM is 25 to 50% on KRas G12D mutant protein (setting [2]), 1 to 25% on KRas G12C mutant (setting [3]) and 25 to 50% on KRas wild type (setting [4]).
Consider `Cc1sc2c(O)nc(-c3nccn3C)nc2c1-c1ccc(OC(C)C)c(F)c1` [drawing 3610], for which the figures for the inhibition at 20 µM on KRas G12D mutant protein (setting [2]), at KRas G12C mutant (setting [3]) and on KRas wild type (setting [4]) were 51 to 75%, 1 to 25% and 25 to 50%, respectively.
In the same order, the values of `COCCCNc1nc(-c2nccn2C)nc2sc(-c3ccccc3)c(-c3ccccc3)c12` [drawing 3570] are 51 to 75%, 51 to 75% and 51 to 75%.
The matching figures for `Cn1cnc(-c2nc(O)c3scc(-c4cccc(C(F)(F)F)c4)c3n2)c1` [drawing 3604]: 25 to 50%, 25 to 50% and 51 to 75%.
The matching figures for `COCCNc1nc(-c2nccn2C)nc2sc(-c3ccccc3)c(-c3ccncc3)c12` [drawing 3596]: 51 to 75%, 25 to 50% and 51 to 75%.
As for `COc1ccc(-c2c(C)sc3c(O)nc(-c4nccn4C)nc23)cn1` [drawing 3601], the inhibition at 20 µM on KRas G12D mutant protein (setting [2]), on KRas G12C mutant (setting [3]) and at KRas wild type (setting [4]) was 1 to 25% throughout.
`CCOCCOc1nc(-c2nccn2C)nc2sc(-c3ccccc3)c(-c3ccccc3)c12` [drawing 3572]: the inhibition at 20 µM at KRas G12D mutant protein (setting [2]) is 1 to 25%; at KRas G12C mutant (setting [3]) it was 0%; on KRas wild type (setting [4]) it was 25 to 50%.
The matching figures for `COc1ccc(-c2c(-c3ccccc3)sc3c(O)nc(-c4nccn4C)nc23)cn1` [drawing 3593]: 1 to 25%, 1 to 25% and 1 to 25%.
The matching figures for `Cn1cnc(-c2nc(O)c3scc(-c4cccc(OC(F)(F)F)c4)c3n2)c1` [drawing 3606]: 25 to 50%, 1 to 25% and 25 to 50%.
The matching figures for `Cn1ccnc1-c1nc(NCCCO)c2c(-c3ccccc3)c(-c3ccccc3)sc2n1` [drawing 3579]: 51 to 75%, 25 to 50% and 25 to 50%.
`Cn1ccnc1-c1nc(O)c2sc(-c3ccccc3)c(-c3ccccc3)c2n1` [drawing 3588]: the inhibition at 20 µM is 0% on KRas G12D mutant protein (setting [2]), 0% at KRas G12C mutant (setting [3]) and 1 to 25% on KRas wild type (setting [4]).
For `COCCNc1nc(-c2cn(C)cn2)nc2sc(-c3ccccc3)c(-c3ccccc3)c12` [drawing 3583], the inhibition at 20 µM on KRas G12D mutant protein (setting [2]) was in the range of 25 to 50%; on KRas G12C mutant (setting [3]) it was 25 to 50%; at KRas wild type (setting [4]) it was 51 to 75%.
With `COCCNc1nc(-c2nccn2C)nc2sc(-c3ccccc3Cl)c(-c3ccccc3)c12` [drawing 3581], the inhibition at 20 µM at KRas G12D mutant protein (setting [2]), at KRas G12C mutant (setting [3]) and at KRas wild type (setting [4]) was 1 to 25% in each case.
In the case of `Cn1ccnc1-c1nc(NCCOC2CC2)c2c(-c3ccccc3)c(-c3ccccc3)sc2n1` [drawing 3576], the inhibition at 20 µM on KRas G12D mutant protein (setting [2]) lay in the range of 1 to 25%; at KRas G12C mutant (setting [3]) it was 25 to 50%; at KRas wild type (setting [4]), 25 to 50%.
Consider `COCCNc1nc(-c2cccc(N)n2)nc2sc(-c3ccccc3)c(-c3ccccc3)c12` [drawing 3591], for which the inhibition at 20 µM on KRas G12D mutant protein (setting [2]) is 0%; on KRas G12C mutant (setting [3]) it was 1 to 25%; on KRas wild type (setting [4]) it was 0%.
`COC1CCN(c2nc(-c3nccn3C)nc3sc(-c4ccccc4)c(-c4ccccc4)c23)C1` (centres unmarked) [drawing 3571]: the inhibition at 20 µM on KRas G12D mutant protein (setting [2]) lay within 51 to 75%; on KRas G12C mutant (setting [3]), 1 to 25%; at KRas wild type (setting [4]), 25 to 50%.
For the compound `Oc1nc(-c2ncccn2)nc2c(-c3cccc(C(F)(F)F)c3)csc12` [drawing 3608], the values for the inhibition at 20 µM at KRas G12D mutant protein (setting [2]), on KRas G12C mutant (setting [3]) and at KRas wild type (setting [4]) were 25 to 50%, 25 to 50% and 51 to 75%, respectively.
`COCCNc1nc(-c2nccn2C)nc2sc(-c3ccc(OC)cc3)c(-c3ccccc3)c12` [drawing 3597]: the inhibition at 20 µM at KRas G12D mutant protein (setting [2]) was in the range of 25 to 50%; at KRas G12C mutant (setting [3]), 1 to 25%; at KRas wild type (setting [4]) it was 1 to 25%.
Take `COc1nc(-c2ccccn2)nc(Oc2cccc(C(F)(F)F)c2)c1O` [drawing 3565]: the inhibition at 20 µM at KRas G12D mutant protein (setting [2]) lay within 51 to 75%; at KRas G12C mutant (setting [3]), 25 to 50%; at KRas wild type (setting [4]), 1 to 25%.
In the same order, the values of `COCCNc1nc(-c2nccn2C)nc2sc(-c3ccccc3)c(-c3ccccn3)c12` [drawing 3622] are 25 to 50%, 25 to 50% and 51 to 75%.
The matching figures for `COc1ccc(-c2csc3c(O)nc(-c4nccn4C)nc23)cn1` [drawing 3613]: 51 to 75%, 25 to 50% and 25 to 50%.
In the same order, the values of `CCOCCNc1nc(-c2nccn2C)nc2sc(-c3ccccc3)c(-c3ccccc3)c12` [drawing 3575] are 51 to 75%, 51 to 75% and 51 to 75%.
As to `COCCNc1nc(-c2nccn2C)nc2sc(-c3ccccc3)c(-c3ccc(OC)cc3)c12` [drawing 3589], the inhibition at 20 µM at KRas G12D mutant protein (setting [2]), at KRas G12C mutant (setting [3]) and at KRas wild type (setting [4]) was 25 to 50% throughout.
As to `COCCNc1nc(-c2nccn2C)nc2sc(-c3ccncc3)c(-c3ccccc3)c12` [drawing 3582], the inhibition at 20 µM at KRas G12D mutant protein (setting [2]) was 51 to 75%; on KRas G12C mutant (setting [3]), 51 to 75%; on KRas wild type (setting [4]), 76 to 100%.
For `COCCNc1nc(-c2nccn2C)nc2sc(-c3ccccc3)c(-c3ccccc3Cl)c12` [drawing 3580], the inhibition at 20 µM on KRas G12D mutant protein (setting [2]) was 25 to 50%; at KRas G12C mutant (setting [3]), 25 to 50%; on KRas wild type (setting [4]), 1 to 25%.
Take `Cn1ccnc1-c1nc(O)c2sc(-c3ccccc3)c(-c3cccc(C(F)(F)F)c3)c2n1` [drawing 3592]: the inhibition at 20 µM on KRas G12D mutant protein (setting [2]) was 0%; on KRas G12C mutant (setting [3]) it was 0%; at KRas wild type (setting [4]), 1 to 25%.
Regarding `Cn1ccnc1-c1nc(O)c2scc(-c3cccc(Cl)c3)c2n1` [drawing 3617], the inhibition at 20 µM at KRas G12D mutant protein (setting [2]), at KRas G12C mutant (setting [3]) and at KRas wild type (setting [4]) was 25 to 50% in each case.
For `Cn1ccnc1-c1nc(O)c2scc(-c3ccc(F)cc3F)c2n1` [drawing 3616], the inhibition at 20 µM on KRas G12D mutant protein (setting [2]) was 25 to 50%; at KRas G12C mutant (setting [3]) it was 1 to 25%; at KRas wild type (setting [4]), 1 to 25%.
As for `Cc1sc2c(O)nc(-c3nccn3C)nc2c1-c1ccc(F)cc1F` [drawing 3621], the inhibition at 20 µM at KRas G12D mutant protein (setting [2]), on KRas G12C mutant (setting [3]) and at KRas wild type (setting [4]) was 1 to 25% in each case.
On to `COCC(C)Nc1nc(-c2nccn2C)nc2sc(-c3ccccc3)c(-c3ccccc3)c12` (centres unmarked) [drawing 3577], for which the inhibition at 20 µM at KRas G12D mutant protein (setting [2]), at KRas G12C mutant (setting [3]) and on KRas wild type (setting [4]) was 1 to 25% in each case.
As for `COCCNc1nc(-c2nccn2C)nc2sc(C)c(-c3ccccc3)c12` [drawing 3584], the inhibition at 20 µM on KRas G12D mutant protein (setting [2]), on KRas G12C mutant (setting [3]) and at KRas wild type (setting [4]) was 51 to 75% throughout.
As to `Cc1sc2c(O)nc(-c3nccn3C)nc2c1-c1ccc(OCC(C)C)nc1` [drawing 3600], the inhibition at 20 µM on KRas G12D mutant protein (setting [2]), on KRas G12C mutant (setting [3]) and on KRas wild type (setting [4]) was 1 to 25% throughout.
As to `COCCNc1nc(-c2cn(C)cn2)nc2sc(C)c(-c3ccccc3)c12` [drawing 3585], the figures for the inhibition at 20 µM on KRas G12D mutant protein (setting [2]), at KRas G12C mutant (setting [3]) and on KRas wild type (setting [4]) were 25 to 50%, 25 to 50% and 51 to 75%, respectively.
For `Cn1ccnc1-c1nc(O)c2scc(-c3ccccc3)c2n1` [drawing 3614], the inhibition at 20 µM was 51 to 75% at KRas G12D mutant protein (setting [2]), 25 to 50% on KRas G12C mutant (setting [3]) and 25 to 50% at KRas wild type (setting [4]).
Regarding `Oc1nc(-c2ccncn2)nc2c(-c3cccc(C(F)(F)F)c3)csc12` [drawing 3607], the inhibition at 20 µM on KRas G12D mutant protein (setting [2]) was in the range of 1 to 25%; on KRas G12C mutant (setting [3]), 25 to 50%; on KRas wild type (setting [4]), 25 to 50%.
